Holding throughout (experiment): area under concentration-response curve (viability) (AUC (a.u.)); higher = less active
Holding throughout (conditions): 48 h

In test [1] the test system is CU-ACC1. Put shortly:
(§1)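 Three adrenocortical carcinoma cell lines were plated in 1,536-well plates at 500–1,000 cells/well in 5 µL medium, and 23 nL of each library compound was added at 11 concentrations. After 48 h, CellTiter-Glo was applied for 15 minutes at room temperature before luminescence was read. Each plate's signals were normalised to vehicle and empty-well controls. AC50 and area under the curve were taken from fitted concentration-response curves, with only inhibitory or non-responding curve classes retained.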

The test system of test [2] is CU-ACC2. Put shortly:
as §1

In test [3] the test system is NCI-H295R. Put shortly: as §1

For `COc1cc2c(NC3CCN(C)CC3)nc(N3CCCN(C)CC3)nc2cc1OCCCN(C)C`, the “area under concentration-response curve” value in test [1] was found to be 544; in test [2] it was 641; in test [3], 564.

`CO[C@H]1/C=C/O[C@@]2(C)Oc3c(C)c(O)c4c(O)c(c(/C=N/N5CCN(C)CC5)c(O)c4c3C2=O)NC(=O)/C(C)=C\C=C\[C@H](C)[C@H](O)[C@@H](C)[C@@H](O)[C@@H](C)[C@H](OC(C)=O)[C@@H]1C`: the “area under concentration-response curve” value in test [1] came to 550; in test [2], 624; in test [3] it was 560.

Consider `NC(=O)c1cccc(-c2cccc(OC(=O)NC3CCCCC3)c2)c1`, for which the results for the “area under concentration-response curve” value in test [1], in test [2] and in test [3] were 480, 485 and 470, respectively.

With `C=CCN(/C=C1\C(=O)O[C@@H](COC)[C@]2(C)C1=C(O)C(=O)C1=C2[C@@H](OC(C)=O)C[C@]2(C)C(=O)CC[C@H]12)CC=C`, the “area under concentration-response curve” value in test [1] amounted to 340; in test [2], 385; in test [3], 401.

In the case of `CCCCCCCCCCCCCCCCCCOP(=O)([O-])OC1CC[N+](C)(C)CC1`, the “area under concentration-response curve” value in test [1] is 418; in test [2] it was 534; in test [3] it was 449.

As for `N=C(N)NN.N=C(N)NN.O=S(=O)(O)O`, the “area under concentration-response curve” value in test [1] came to 503; in test [2] it was 559; in test [3], 524.

For the compound `CCCCCCCCCCCCc1ccc([S+](=O)([O-])Nc2nncs2)cc1`, the results for the “area under concentration-response curve” value in test [1], in test [2] and in test [3] were 543, 604 and 527, respectively.

On to `NCCc1c[nH]cn1`, for which the “area under concentration-response curve” value was determined as 416 in test [1], 605 in test [2] and 548 in test [3].

Take `COc1nccc(-c2c(-c3ccc(F)cc3)ncn2C2CCNCC2)n1`: the “area under concentration-response curve” value is 429 in test [1], 482 in test [2] and 423 in test [3].

In the case of `CN\1N(C(=O)\C(=C1C)C(=O)NC2=CC=C(OC3=CC=NC4=C3C(=C[NH]4)C5=CC=CC=C5)C(=C2)F)C6=CC=C(F)C=C6`, the “area under concentration-response curve” value in test [1] came out at 522; in test [2] it was 525; in test [3], 535.

For the compound `O=C(O)Cn1nnc(-c2cc(N3CCC(Oc4cc(F)ccc4Br)CC3)no2)n1`, the “area under concentration-response curve” value in test [1] was found to be 491; in test [2] it was 594; in test [3], 515.

As to `N#Cc1ccc(C(c2ccc(C#N)cc2)n2cncn2)cc1`, the “area under concentration-response curve” value in test [1] came to 488; in test [2], 428; in test [3], 516.

For the compound `C[Se]CCC(N)C(=O)O` (configuration not stated), the “area under concentration-response curve” value in test [1] amounted to 540; in test [2] it was 550; in test [3], 479.

Regarding `CC1=C(CC(=O)O)c2cc(F)ccc2/C1=C\c1ccc([S+](C)[O-])cc1` (configuration not stated), the “area under concentration-response curve” value is 526 in test [1], 647 in test [2] and 573 in test [3].

In the case of `O=C(O)c1cccc(-c2noc(-c3ccccc3F)n2)c1`, the “area under concentration-response curve” value stood at 477 in test [1], 559 in test [2] and 451 in test [3].

As to `C[C@H](CCC(=O)O)[C@H]1CCC2C3C[C@H](O)[C@@H]4C[C@H](O)CC[C@]4(C)C3CC[C@@]21C` (some centres not stated), the “area under concentration-response curve” value in test [1] was 454; in test [2], 501; in test [3] it was 470.

As to `CC(C)(C)c1cc(C(=O)O)c(NC(=O)Nc2ccc3[nH]ncc3c2)s1`, the entries for the “area under concentration-response curve” value in test [1], in test [2] and in test [3] were 551, 614 and 582, respectively.

`CCOC(=O)/C=C/[C@H](C[C@@H]1CCNC1=O)NC(=O)[C@@H](CC(=O)[C@@H](NC(=O)c1cc(C)on1)C(C)C)Cc1ccc(F)cc1`: the “area under concentration-response curve” value was 530 in test [1], 523 in test [2] and 539 in test [3].

In the case of `CC(O)(C[S+](=O)([O-])c1ccc(F)cc1)C(=O)Nc1ccc(C#N)c(C(F)(F)F)c1` (configuration not stated), the figures for the “area under concentration-response curve” value in test [1], in test [2] and in test [3] were 454, 482 and 447, respectively.

Take `CN(CC1=CC2=C(N\C(=N/C2=O)C)C=C1)C3=CC=C(S3)C(=O)N[C@@H](CCC(O)=O)C(O)=O`: the “area under concentration-response curve” value in test [1] came to 503; in test [2] it was 602; in test [3], 532.

With `Clc1cccc(C(c2ccc3nc[nH]c3c2)n2ccnc2)c1` (configuration not stated), the “area under concentration-response curve” value in test [1] came out at 534; in test [2], 633; in test [3], 491.

In the case of `NNCCc1ccccc1.O=S(=O)(O)O`, the figures for the “area under concentration-response curve” value in test [1], in test [2] and in test [3] were 450, 530 and 486, respectively.

Consider `CCN([C@H]1CC[C@@H](CC1)N(C)CCOC)C2=C(C)C(=CC(=C2)C#CCN3CCOCC3)C(=O)NC\C4=C(C)\C=C(\C)NC4=O`, for which the “area under concentration-response curve” value in test [1] turned out to be 536; in test [2], 500; in test [3], 552.

Consider `O=C(O)C[C@H]1CC[C@H](c2ccc(-c3ccc(Nc4ccc(C(F)(F)F)nc4)cn3)cc2)CC1`, for which the figures for the “area under concentration-response curve” value in test [1], in test [2] and in test [3] were 504, 580 and 538, respectively.

On to `CC\1=C(C(=O)N(\C=C1)C2=CC=C(C=C2)C3=NC=CO3)/C4=CC5=CN=C(N)N=C5C=C4`, for which the results for the “area under concentration-response curve” value in test [1], in test [2] and in test [3] were 547, 625 and 574, respectively.

With `CC(C)CC(=O)N[C@H](C(=O)N[C@H](C(=O)N[C@@H](CC(C)C)[C@@H](O)CC(=O)N[C@@H](C)C(=O)N[C@@H](CC(C)C)[C@@H](O)CC(=O)O)C(C)C)C(C)C`, the “area under concentration-response curve” value turned out to be 537 in test [1], 538 in test [2] and 485 in test [3].

`O=P1(N(CCCl)CCCl)NCCCO1` (configuration not stated): the “area under concentration-response curve” value was 534 in test [1], 578 in test [2] and 526 in test [3].

Consider `C[C@]\12CCC(=O)\C=C1[C@@H]3C[C@@H]3[C@@H]4[C@@H]2CC[C@@]5(C)[C@H]4[C@@H]6C[C@@H]6[C@@]57CCC(=O)O7`, for which the figures for the “area under concentration-response curve” value in test [1], in test [2] and in test [3] were 509, 602 and 549, respectively.

Take `COCC(=O)NC/C=C/c1ccc2ncnc(Nc3ccc(Oc4ccc(C)nc4)c(C)c3)c2c1`: the results for the “area under concentration-response curve” value in test [1], in test [2] and in test [3] were 522, 613 and 552, respectively.

The record behind these values is the supplement of paper PMC10949913.
